Data: patent US9593100B2, “Compounds and compositions as protein kinase inhibitors” (Array BioPharma, Inc., priority 2009, dated 2017)
Values belong to the molecule of their own block, whether it stands above or below them.

Assays:
[1] = In Vivo Pharmacokinetics Assay; design: species or system mouse; conditions: oral dose of 10 mg/kg
Description: (§1) Full pharmacokinetics study: Male Balb/c mice (n=3, body weights 22-25 g) or male Wistar rats (n=3, body weights 250-300 g) were administered the test compound intravenously via the lateral tail vein or orally via gavage. The formulation was typically a 2.5 mg/mL solution of the compound in 75% PEG300 and 25% D5W. Six blood samples of 50 μL each were collected serially for 24 h after dosing. The blood samples were centrifuged to separate the plasma. Plasma samples were analyzed and quantified by LC-MS/MS.
as §1, with “Rapid” for “Full”, “intravenously (IV)” for “intravenously”, “orally (PO)” for “orally”, “The blood samples were centrifuged to separate the plasma.” left out
For both full and rapid pharmacokinetics studies, the following parameters were calculated by non-compartmental regression analysis using Winnonlin 5.0 software (Pharsight, Mountain View, Calif., USA): plasma clearance (Cl), plasma maximum concentration (Cmax), plasma area-under-the-concentration-time-curve (AUC0-inf), and percent oral bioavailability (F %).

SW620 cells = assay: SW620 Cell Viability Assay (Cell Titer Glo); type: cell-based; conditions: 9 serial dilutions between 10 and 0.002 μM, FIG. 1
Description: SW620 cells were seeded in 1640 RPMI+10% FBS at a density of 1500 cells per 96-well in black walled, clear bottom tissue culture treated plates. Test compounds were serially diluted in DMSO then added to the cells (final DMSO concentration of 0.1%) and incubated at 37° C. and 5% CO2 for 4 days. To measure cell viability, cell plates were brought to room temperature, culture media was removed, and 200 μl of Cell Titer-Glo reagent (Promega, kit components mixed as per the manufacturer's protocol then diluted 1:2 with growth media) was added to each well. Plates were shaken for 5 minutes, then incubated at room temperature for 5 minutes, and the luminescence was measured (Trilux, Perkin Elmer).

A375 cells = assay: A375 Cellular Proliferation Assay (A375 CP); type: cell-based; conditions: Homo sapiens, A-375, 48 h; A375-luc cells, 2 days
Description: A375-luc cells engineered to express luciferase are plated to 384-well white clear bottom plates as 1,500 cells/50 μl/well in DMEM containing 10% FBS. Compounds of the invention dissolved in 100% DMSO at appropriate concentrations are transferred to the cells by a robotic Pin Tool (100 nl). The cells are incubated for 2 days at […], then 25 μl of BrightGlo™ is added to each well and the plates are read by luminescence. The concentration of each compound for 50% inhibition (IC50) was calculated by non-linear regression using XL Fit data analysis software.

p38α MAP Kinase = assay: A549 p38α MAP Kinase Bright-Glo Reporter Gene Assay; type: cell-based; conditions: ratio of p38 RGA IC50 to A375 CP IC50
Description: A549 cells were stably-transfected with the IL-8 promoter driven reporter, pGL3-IL8-Luc. The cells were plated at 4×10^5/ml into 384-well solid white plates (40 ul/well, 5% CD-FBS, 1×P/S, DMEM) and were incubated overnight (18-20 hours) at 37° C. Test compounds were serially diluted in DMSO, then 50 nl of test solution was added to the incubation (final DMSO concentration of 0.1%). After incubating with test compound for 30 min, cells were stimulated with 1 ng/ml IL-1 beta (10 ul of 5 ng/ml solution per well). Bright-Glo (25 ul/well) was added to measure luciferase expression after 7-8 hours of stimulation.

AUC (total drug exposure) [1]: 30 ± 4 µM·h
Compound: COC(=O)N[C@@H](C)CNc1nccc(-c2cn(C(C)C)nc2-c2cc(Cl)cc(NS(C)(=O)=O)c2F)n1 [Compound 9, Methyl N-[(2S)-1-({4-[3-(5-chloro-2-fluoro-3-methanesulfonamidophenyl)-1-(propan-2-yl)-1H-pyrazol-4-yl]pyrimidin-2-yl}amino)propan-2-yl]carbamate]
Effect on cellular proliferation (SW620 cells): induction in cellular proliferation

IC50 (A375 cells): > 20 µM
Compound: COC(=O)N[C@@H](C)CNc1nccc(-c2cn(C(C)C)nc2-c2cc(NS(C)(=O)=O)c(C)c(OC)c2)n1 [Compound 27]

Compound: CNc1nccc(-c2cn(C(C)C)nc2-c2cc(Cl)cc(NS(C)(=O)=O)c2F)n1 [Compound 29, N-(5-chloro-2-fluoro-3-{4-[2-(methylamino)pyrimidin-4-yl]-1-(propan-2-yl)-1H-pyrazol-3-yl}phenyl)methanesulfonamide]
(p38 RGA)/(A375) ratio (p38α MAP Kinase): 220

Compound: COC(=O)NC[C@H](C)Nc1nccc(-c2cn(C(C)C)nc2-c2cc(Cl)cc(NS(C)(=O)=O)c2F)n1 [Compound 32, Methyl N-[(2S)-2-({4-[3-(5-chloro-2-fluoro-3-methanesulfonamidophenyl)-1-(propan-2-yl)-1H-pyrazol-4-yl]pyrimidin-2-yl}amino)propyl]carbamate]
(p38 RGA)/(A375) ratio (p38α MAP Kinase): 91
